According to US8778966B2, “Quinolinone derivatives as PARP and tank inhibitors” (Janssen Pharmaceutica, NV, priority 2007, dated 2014):
Like-named read-outs stand apart in the source and are kept apart here.

Legend:
[1] = system: PC-3 cells; assay: Antiproliferative activity, Alamar Blue assay, PC-3 cells; type: cell-based, human; settings: for IC50: Homo sapiens, PC-3, PC3 cells, read-out: PC3 antiproliferative activity pIC50 (converted)
Summary of the method: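 PC-3 cells seeded at 4.5×10^3 cells/ml, left to adhere 24 hr, then exposed to compound for 4 days. Resazurin (Alamar Blue) added for a further 24 hrs at 37° C; fluorescence read at 540/590 nm. Viability as % of untreated control, mean of 3 wells; IC50 by probit analysis, reported as pIC50.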

[2] = system: HCT116 cells; assay: Mitotic arrest assay on HCT116 cells (phospho-histone H3 Ser10); type: cell-based, human; settings: Homo sapiens, HCT-116, HCT116 cells; lowest active dose; read-out: Mitotic arrest HCT116 LAD (converted)
Summary of the method: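 Seeded overnight, then compound-treated 6 h at 37 °C (≤0.1% DMSO); fixed, stained with Alexa Fluor 488 anti-phospho-H3 (Ser10) plus Hoechst 33342, imaged on InCell Analyzer 1000. Blank-subtracted signal divided by SD (sigma), triplicate; value is lowest dose giving sigma >5 (LAD).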

PC3 antiproliferative activity pIC50 ([1]; PC3 cells)	IC50 ([1]; Alamar Blue) [µM]	IC50 [1] [µM]	Compound	minimal effective concentration [2] [µM]
6.8			CCc1cc2ccc(C(C)(C#N)Cc3nc(C#N)cc(OC)n3)cc2[nH]c1=O (single isomer, unassigned) [Compound 204]	
	2		CCc1cc2c(OC)cc(C(C)(C#N)Cc3nc(OC)cc(OC)n3)cc2[nH]c1=O (single isomer, unassigned) [Compound 230]	1
	0.398		CCc1cc2ccc([C@@](C)(C#N)CCOc3ccc(C#N)cc3)cc2[nH]c1=O (single isomer, unassigned) [Compound 273]	0.1
	10		CCc1cc2ccc([C@](C)(C#N)CCOc3ccc(C#N)cc3)cc2[nH]c1=O (single isomer, unassigned) [Compound 275]	10
	0.501		CCc1cc2ccc([C@](C)(C#N)Cc3cccc(/C=C/S(C)(=O)=O)c3)cc2[nH]c1=O (single isomer, unassigned) [Compound 291]	0.1
	10		CCc1cc2ccc([C@@](C)(C#N)Cc3cccc(C#CCO)c3)cc2[nH]c1=O (single isomer, unassigned) [Compound 295]	10
	0.1		CCc1cc2ccc([C@](C)(C#N)Cc3cccc(C#CCO)c3)cc2[nH]c1=O (single isomer, unassigned) [Compound 296]	0.1
	10		CCc1cc2ccc([C@@](C)(C#N)Cc3cc(OC)nc(C)n3)cc2[nH]c1=O (single isomer, unassigned) [Compound 361]	10
	0.631		CCc1cc2ccc([C@](C)(C#N)Cc3cc(OC)nc(C)n3)cc2[nH]c1=O (single isomer, unassigned) [Compound 362]	0.3
	10		Cc1cc2ccc([C@@](C)(C#N)C3CCc4ccccc43)cc2[nH]c1=O (single isomer, unassigned) [Compound 385]	10
	0.2		Cc1cc2ccc([C@](C)(C#N)C3CCc4ccccc43)cc2[nH]c1=O (single isomer, unassigned) [Compound 386]	0.1
		6.31	CCc1cc2ccc(C(C)(C#N)Cc3cccc(OCCCN4CCNCC4)c3)cc2[nH]c1=O (stereo not drawn) [Compound 25]	1
		> 10	CCc1cc2ccc(C(C#N)(Cc3ccccc3)c3ccc(C#N)cc3)cc2[nH]c1=O (stereo not drawn) [Compound 26]	> 10
		6.31	CCc1cc2ccc(C(C#N)(Cc3ccccc3)c3ccccc3)cc2[nH]c1=O (stereo not drawn) [Compound 27]	3.16
		5.01	CCc1cc2ccc(C(C#N)(Cc3ccccc3)C3CC3)cc2[nH]c1=O (stereo not drawn) [Compound 29]	1
		6.31	CCc1cc2ccc(C(C#N)(Cc3ccccc3)C(C)C)cc2[nH]c1=O (stereo not drawn) [Compound 30]	3.16
		3.16	CCCC(C#N)(Cc1ccccc1)c1ccc2cc(CC)c(=O)[nH]c2c1 (stereo not drawn) [Compound 31]	1
		0.2	CCc1cc2ccc(C(C)(C#N)Cc3cc(OC)ccc3F)cc2[nH]c1=O (stereo not drawn) [Compound 171]	
	5.01		CCc1cc2ccc(C(C)(C#N)Cc3cccc(-c4ccc[nH]4)c3)cc2[nH]c1=O (stereo not drawn) [Compound 176]	1
	10		CCc1cc2ccc(C(C)(C#N)Cc3cccc(CCS(C)(=O)=O)c3)cc2[nH]c1=O (stereo not drawn) [Compound 178]	3

PC3 antiproliferative activity pIC50 ([1]; PC3 cells)	IC50 ([1]; Alamar Blue) [µM]	IC50 [1] [µM]	Compound	minimal effective concentration [2] [µM]
	7.94		Cc1cc2ccc(C(C)(C#N)Cc3cccc(C=Cc4ccccc4)c3)cc2[nH]c1=O (stereo not drawn) [Compound 179]	1
		0.251	CCc1cc2ccc(C(C)(C#N)Cc3cccc(/C=N/OC)c3)cc2[nH]c1=O (stereo not drawn) [Compound 185]	
	5.01		CCc1cc2ccc(C(C)(C#N)Cc3cccc(C(=N)NO)c3)cc2[nH]c1=O (stereo not drawn) [Compound 186]	3
	1.58		Cc1cc2ccc(C(C)(C#N)Cc3cccc(Oc4ccc(F)cc4)c3)cc2[nH]c1=O (stereo not drawn) [Compound 192]	0.3
		0.631	CCc1cc2ccc(C(C)(C#N)Cc3cccc(OCCCC#N)c3)cc2[nH]c1=O (stereo not drawn) [Compound 194]	
	0.251		CCc1cc2ccc(C(C)(C#N)Cc3cccc(OCCC#N)c3)cc2[nH]c1=O (stereo not drawn) [Compound 195]	0.1
	1		C#CCOc1cccc(CC(C)(C#N)c2ccc3cc(CC)c(=O)[nH]c3c2)c1 (stereo not drawn) [Compound 196]	0.3
	6.31		CCc1cc2ccc(C(C)(C#N)COCc3ccccc3)cc2[nH]c1=O (stereo not drawn) [Compound 197]	
		5.01	CCc1cc2ccc(C(C)(C#N)Cc3cccc(OCCS(C)(=O)=O)c3)cc2[nH]c1=O (stereo not drawn) [Compound 201]	
	0.251		CCc1cc2ccc(C(C)(C#N)Cc3nc(Cl)cc(OC)n3)cc2[nH]c1=O (stereo not drawn) [Compound 202]	0.1
	1.26		CCc1cc2ccc(C(C)(C#N)Cc3nc(N(C)C)cc(N(C)C)n3)cc2[nH]c1=O (stereo not drawn) [Compound 205]	0.3
	5.01		CCc1cc2ccc(C(C)(C#N)Cc3cccc(N4CCC(N(C)C)C4)n3)cc2[nH]c1=O (stereo not drawn) [Compound 209]	1
	6.31		CCc1cc2ccc(C(C)(C#N)Cc3cccc(C#Cc4cncn4C)n3)cc2[nH]c1=O (stereo not drawn) [Compound 217]	3
	7.94		CCc1cc2ccc(C(C)(C#N)Cc3cccc(N(C)CCc4ccccc4)n3)cc2[nH]c1=O.Cl (stereo not drawn) [Compound 220]	3
		3.16	CCc1cc2ccc(C(C)(C#N)Cc3cccc(C#N)[n+]3[O-])cc2[nH]c1=O (stereo not drawn) [Compound 228]	
	5.01		CCc1cc2c(OC)cc(C(C)(C#N)Cc3nc(OC)cc(OC)n3)cc2[nH]c1=O (stereo not drawn) [Compound 229]	3
	2		CCc1cc2ccc(C(C)(C#N)CN3CCN(c4ccccn4)CC3)cc2[nH]c1=O (stereo not drawn) [Compound 233]	1
	1.58		Cc1nc(-c2ccccc2)sc1CC(C)(C#N)c1ccc2cc(C)c(=O)[nH]c2c1 (stereo not drawn) [Compound 235]	0.3
	6.31		CCc1cc2ccc(C(C)(C#N)Cc3cccc4c3CCN4)cc2[nH]c1=O (stereo not drawn) [Compound 237]	1
	0.251		CCc1cc2ccc(C(C)(C#N)Cc3cccc(C(=O)OC(C)C)c3)cc2[nH]c1=O (stereo not drawn) [Compound 255]	0.1

PC3 antiproliferative activity pIC50 ([1]; PC3 cells)	IC50 ([1]; Alamar Blue) [µM]	IC50 [1] [µM]	Compound	minimal effective concentration [2] [µM]
	1		Cc1cc2ccc(C(C)(C#N)Cc3cccc(I)c3)cc2[nH]c1=O (stereo not drawn) [Compound 256]	0.1
	1.58		CCc1cc2ccc(C(C)(C#N)Cc3cccc(NC)c3)cc2[nH]c1=O (stereo not drawn) [Compound 257]	0.3
	0.2		CCc1cc2ccc(C(C)(C#N)Cc3cc(Br)cc(N(C)C)c3)cc2[nH]c1=O (stereo not drawn) [Compound 260]	0.1
	6.31		Cc1cc2ccc(C(C)(C#N)Cc3cccc(OCC4CCOCC4)c3)cc2[nH]c1=O (stereo not drawn) [Compound 261]	1
	0.631		CCc1cc2ccc(C(C)(C#N)Cc3cc(F)ccc3F)cc2[nH]c1=O (stereo not drawn) [Compound 280]	0.3
	1.58		CCc1cc2ccc(C(C)(C#N)Cc3ccc(F)c(F)c3)cc2[nH]c1=O (stereo not drawn) [Compound 281]	1
	2		CCc1cc2ccc(C(C)(C#N)Cc3cc(C(F)(F)F)ccc3F)cc2[nH]c1=O (stereo not drawn) [Compound 283]	0.3
	1.58		CCOc1cccc(CC(C)(C#N)c2ccc3cc(CC)c(=O)[nH]c3c2)c1 (stereo not drawn) [Compound 285]	0.3
	2		CCc1cc2ccc(C(C)(C#N)Cc3cccc(OC)c3F)cc2[nH]c1=O (stereo not drawn) [Compound 286]	1
	2		CCc1cc2ccc(C(C)(C#N)Cc3cc(C(C)C)ccc3OC)cc2[nH]c1=O (stereo not drawn) [Compound 288]	1
	0.316		CCc1cc2ccc(C(C)(C#N)Cc3cc(OC)c(OC)c(OC)c3)cc2[nH]c1=O (stereo not drawn) [Compound 289]	0.1
	1		CCc1cc2ccc(C(C)(C#N)Cc3cccc(/C=N/O)c3)cc2[nH]c1=O (stereo not drawn) [Compound 299]	
	0.501		CCc1cc2ccc(C(C)(C#N)CN(C)Cc3ccc(C#N)cc3)cc2[nH]c1=O (stereo not drawn) [Compound 300]	0.3
	5.01		CCc1cc2ccc(C(C)(C#N)CNCc3ccc(C#N)cc3)cc2[nH]c1=O (stereo not drawn) [Compound 302]	1
	3.16		Cc1cc2ccc(C(C)(C#N)Cc3cccc(Oc4ccccc4)c3)cc2[nH]c1=O (stereo not drawn) [Compound 305]	0.3
	0.251		CCc1cc2ccc(C(C)(C#N)Cc3nc(C#N)cc(OC)n3)cc2[nH]c1=O (stereo not drawn) [Compound 313]	0.3
		1	CCc1cc2ccc(C(C)(C#N)Cc3cc(C#N)nc(OC)c3)cc2[nH]c1=O (stereo not drawn) [Compound 314]	
		1.26	CCc1cc2ccc(C(C)(C#N)Cc3cc(C#N)nc(N(C)C)c3)cc2[nH]c1=O (stereo not drawn) [Compound 325]	
		3.98	CCc1cc2ccc(C(C)(C#N)Cc3c4ccccc4nn3C)cc2[nH]c1=O (stereo not drawn) [Compound 347]	
	1.58		CCc1cc2ccc(C(C)(C#N)Cc3cc(OC)nc(OC)c3)cc2[nH]c1=O (stereo not drawn) [Compound 350]	
